The target in one data set is T1, Protein RecA (Mycobacterium tuberculosis, UniProt P9WHJ3).
T1 sequence (P9WHJ3 whole entry): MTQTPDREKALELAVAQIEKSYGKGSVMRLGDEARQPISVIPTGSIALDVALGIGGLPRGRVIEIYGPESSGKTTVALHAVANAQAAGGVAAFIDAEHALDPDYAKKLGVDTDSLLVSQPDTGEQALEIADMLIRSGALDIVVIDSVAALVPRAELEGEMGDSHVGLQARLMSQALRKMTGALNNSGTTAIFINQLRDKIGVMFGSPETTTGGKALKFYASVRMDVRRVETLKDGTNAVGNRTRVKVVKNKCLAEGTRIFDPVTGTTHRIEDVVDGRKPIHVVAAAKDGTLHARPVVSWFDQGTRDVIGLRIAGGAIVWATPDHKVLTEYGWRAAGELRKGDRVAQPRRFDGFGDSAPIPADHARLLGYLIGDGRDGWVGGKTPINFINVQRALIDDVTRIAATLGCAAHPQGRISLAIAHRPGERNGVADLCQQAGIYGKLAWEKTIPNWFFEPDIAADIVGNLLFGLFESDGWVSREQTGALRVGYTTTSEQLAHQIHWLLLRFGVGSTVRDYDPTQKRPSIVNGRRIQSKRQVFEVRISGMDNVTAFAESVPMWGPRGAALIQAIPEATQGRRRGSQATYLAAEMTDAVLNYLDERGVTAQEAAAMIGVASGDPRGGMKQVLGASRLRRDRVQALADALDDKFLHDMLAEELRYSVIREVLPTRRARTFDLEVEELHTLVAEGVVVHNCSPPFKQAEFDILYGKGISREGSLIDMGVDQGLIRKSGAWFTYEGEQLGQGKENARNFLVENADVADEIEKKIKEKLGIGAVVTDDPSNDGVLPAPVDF
Kind of data set: Fluorescence Cell-Free Homogeneous Dose Retest to Identify Inhibitors of RecA-Intein Splicing Activity. [Related pubchem assays (depositor defined):AID2097, AID2223, AID489010, AID492950]. The format is functional.

The next data set addresses Caspase-9 (Homo sapiens, UniProt P55211). Kind of data set: inhibitors of purified CASP9 protease – biochemical, fluorescence, plate reader, cherry-picked samples, selectivity assay for caspase-6 inhibitor project, dose response (AID 743293).
The target of data set [1] is Homeodomain-interacting protein kinase 4 (Homo sapiens, UniProt Q8NE63). The format is functional.
The target in data set [2] is STE20-like serine/threonine-protein kinase (Homo sapiens, UniProt Q9H2G2). The format is functional.
The target in data set [3] is Death-associated protein kinase 3 (Homo sapiens, UniProt O43293). In kind it is functional.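 Further: measured as one member of a kinome-wide profiling panel.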
For data set [4], the target named is Serine/threonine-protein kinase Nek2 (Homo sapiens, UniProt P51955). In kind it is functional.
Data set [5] has as its target Proto-oncogene tyrosine-protein kinase receptor Ret (Homo sapiens, UniProt P07949). The format is functional.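 Further: measured within a kinome-wide profiling panel, RET as the panel member.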
For data set [6], the target named is Rho-associated protein kinase 2 (Homo sapiens, UniProt O75116). In kind it is functional.
In data set [7] the target is Cyclin-dependent kinase 2 (Homo sapiens, UniProt P24941). The format is functional.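 Further: CDK2 measured as one member of a broad kinome profiling panel.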
Data set [8] addresses Megakaryocyte-associated tyrosine-protein kinase (Homo sapiens, UniProt P42679). The format is functional.
The target of data set [9] is Testis-specific serine/threonine-protein kinase 1 (Homo sapiens, UniProt Q9BXA7). The format is functional.
The target of the next data set is Cytochrome P450 2C9 (Homo sapiens, UniProt P11712).
Data set [10] has as its target Tyrosine-protein kinase Fer (Homo sapiens, UniProt P16591). The format is functional.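 Further: FER tested as one member of a kinome panel.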
Data set [11] has as its target Dual specificity protein kinase CLK2 (Homo sapiens, UniProt P49760). In kind it is functional.
Data set [12] concerns the target Casein kinase I isoform gamma-1 (Homo sapiens, UniProt Q9HCP0). In kind it is functional.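 Further: measured as the CSNK1G1 member of a kinome profiling panel.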
Data set [13] concerns the target Cell division cycle 7-related protein kinase (Homo sapiens, UniProt O00311). The format is functional.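 Further: value obtained from a kinome-wide kinase panel.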
Data set [14] concerns the target Vascular endothelial growth factor receptor 3 (Homo sapiens, UniProt P35916). In kind it is functional.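 Further: value from a kinome-wide profiling panel, with FLT4 as the panel member.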
Data set [15] concerns the target Proto-oncogene tyrosine-protein kinase Src (Homo sapiens, UniProt P12931). In kind it is functional.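 Further: SRC entry within a kinome-wide kinase profiling panel.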
Data set [16] deals with RAC-gamma serine/threonine-protein kinase (Homo sapiens, UniProt Q9Y243). The format is functional.
For data set [17], the target named is Tyrosine-protein kinase Lyn (Homo sapiens, UniProt P07948). In kind it is functional.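 Further: lyn as one member of a kinase panel.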
Data set [18] addresses Non-receptor tyrosine-protein kinase TYK2 (Homo sapiens, UniProt P29597). In kind it is functional.
The target of data set [19] is cAMP-dependent protein kinase catalytic subunit PRKX (Homo sapiens, UniProt P51817). In kind it is functional.
The target of data set [20] is T2, Polyadenylate-binding protein 1 (Homo sapiens, UniProt P11940). The data set can be described thus: MLLE binding blockers, Cy5 peptide tracer – biochemical, fluorescence polarization, Cy5-PAM2 peptide, secondary, miRNA deadenylation inhibitor project, dose response (AID 602260). The format is functional. The settings on record: read-out: IC50_Mean.
Data set [21] has as its target Protein kinase C iota type (Homo sapiens, UniProt P41743). In kind it is functional.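 Further: measured within a kinome-wide kinase panel, PRKCI as panel member.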
The target of data set [22] is Receptor tyrosine-protein kinase erbB-4 (Homo sapiens, UniProt Q15303). In kind it is functional.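 Further: ERBB4 member of a kinome-wide kinase profiling panel.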
For data set [23], the target named is Maternal embryonic leucine zipper kinase (Homo sapiens, UniProt Q14680). The format is functional.
The target of data set [24] is 5'-AMP-activated protein kinase catalytic subunit alpha-1 (Homo sapiens, UniProt Q13131). In kind it is functional.
The target of data set [25] is Serine/threonine-protein kinase DCLK1 (Homo sapiens, UniProt O15075). In kind it is functional.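 Further: affinity for DCLK1 (listed as DCAMKL1) measured as one member of a kinome-wide kinase profiling panel.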
Data set [26] has as its target Vascular endothelial growth factor receptor 2 (Homo sapiens, UniProt P35968). The format is functional.
Data set [27] addresses T2, Polyadenylate-binding protein 1. The data set can be described thus: MLLE domain peptide-binding blockers, IC50 – biochemical, fluorescence polarization, FITC-PAM2 peptide, dose response (AID 602259). As to conditions: read-out: IC50_Mean. The format is functional.
For data set [28], the target named is BDNF/NT-3 growth factors receptor (Homo sapiens, UniProt Q16620). In kind it is functional.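 Further: NTRK2 measured as one member of a broad kinome-wide kinase profiling panel.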
Data set [29] concerns the target Ribosomal protein S6 kinase alpha-3 (Homo sapiens, UniProt P51812). In kind it is functional.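 Further: measured within a kinome-wide profiling panel.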
The target in data set [30] is Calcium/calmodulin-dependent protein kinase type II subunit gamma (Homo sapiens, UniProt Q13555). In kind it is functional.

Calls of active or inactive are those of the source.

T2 sequence (P11940 whole entry): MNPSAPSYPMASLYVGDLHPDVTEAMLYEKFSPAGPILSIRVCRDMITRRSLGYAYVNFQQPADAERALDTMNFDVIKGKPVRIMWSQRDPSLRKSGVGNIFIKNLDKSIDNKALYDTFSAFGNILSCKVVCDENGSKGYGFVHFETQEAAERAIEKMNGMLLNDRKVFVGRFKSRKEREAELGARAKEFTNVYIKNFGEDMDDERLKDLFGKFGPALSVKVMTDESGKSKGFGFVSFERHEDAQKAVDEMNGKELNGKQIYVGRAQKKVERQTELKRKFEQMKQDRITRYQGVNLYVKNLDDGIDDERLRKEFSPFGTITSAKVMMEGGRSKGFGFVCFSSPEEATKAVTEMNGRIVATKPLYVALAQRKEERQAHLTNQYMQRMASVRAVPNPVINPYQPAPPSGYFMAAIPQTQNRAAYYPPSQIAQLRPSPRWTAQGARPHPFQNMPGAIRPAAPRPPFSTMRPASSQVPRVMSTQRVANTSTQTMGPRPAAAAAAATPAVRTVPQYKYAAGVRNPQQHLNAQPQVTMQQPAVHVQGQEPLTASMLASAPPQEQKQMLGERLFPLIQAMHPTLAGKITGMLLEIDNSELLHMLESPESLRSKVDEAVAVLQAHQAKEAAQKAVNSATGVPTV
Chain of Cell division cycle 7-related protein kinase (O00311 whole entry): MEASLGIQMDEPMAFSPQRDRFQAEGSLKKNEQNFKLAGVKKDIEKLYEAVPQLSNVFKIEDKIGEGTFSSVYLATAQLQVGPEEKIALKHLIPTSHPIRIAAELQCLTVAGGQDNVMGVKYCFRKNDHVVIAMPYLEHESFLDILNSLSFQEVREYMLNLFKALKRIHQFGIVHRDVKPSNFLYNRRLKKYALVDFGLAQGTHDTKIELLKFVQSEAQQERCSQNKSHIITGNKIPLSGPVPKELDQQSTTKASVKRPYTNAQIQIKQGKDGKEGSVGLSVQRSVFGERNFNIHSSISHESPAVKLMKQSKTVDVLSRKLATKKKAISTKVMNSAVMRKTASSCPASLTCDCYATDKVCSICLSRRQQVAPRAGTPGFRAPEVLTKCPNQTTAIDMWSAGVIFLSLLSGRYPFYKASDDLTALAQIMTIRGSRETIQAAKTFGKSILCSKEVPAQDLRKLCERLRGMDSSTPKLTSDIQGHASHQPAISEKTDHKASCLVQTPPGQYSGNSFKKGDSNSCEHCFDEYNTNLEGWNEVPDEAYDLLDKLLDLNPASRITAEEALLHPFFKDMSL
Chain of Casein kinase I isoform gamma-1 (Q9HCP0 whole entry, canonical isoform): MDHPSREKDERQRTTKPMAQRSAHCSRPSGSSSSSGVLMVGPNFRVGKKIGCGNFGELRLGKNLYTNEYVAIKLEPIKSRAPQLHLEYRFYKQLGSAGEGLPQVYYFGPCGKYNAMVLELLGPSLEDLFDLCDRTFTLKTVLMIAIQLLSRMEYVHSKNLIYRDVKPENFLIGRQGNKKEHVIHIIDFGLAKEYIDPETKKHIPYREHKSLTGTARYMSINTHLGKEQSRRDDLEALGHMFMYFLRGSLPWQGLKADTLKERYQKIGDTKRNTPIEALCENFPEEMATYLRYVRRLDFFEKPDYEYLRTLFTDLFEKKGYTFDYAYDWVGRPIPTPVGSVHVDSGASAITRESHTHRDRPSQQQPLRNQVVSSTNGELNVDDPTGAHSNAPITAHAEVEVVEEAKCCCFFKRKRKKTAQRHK
Chain of 5'-AMP-activated protein kinase catalytic subunit alpha-1 (Q13131 whole entry): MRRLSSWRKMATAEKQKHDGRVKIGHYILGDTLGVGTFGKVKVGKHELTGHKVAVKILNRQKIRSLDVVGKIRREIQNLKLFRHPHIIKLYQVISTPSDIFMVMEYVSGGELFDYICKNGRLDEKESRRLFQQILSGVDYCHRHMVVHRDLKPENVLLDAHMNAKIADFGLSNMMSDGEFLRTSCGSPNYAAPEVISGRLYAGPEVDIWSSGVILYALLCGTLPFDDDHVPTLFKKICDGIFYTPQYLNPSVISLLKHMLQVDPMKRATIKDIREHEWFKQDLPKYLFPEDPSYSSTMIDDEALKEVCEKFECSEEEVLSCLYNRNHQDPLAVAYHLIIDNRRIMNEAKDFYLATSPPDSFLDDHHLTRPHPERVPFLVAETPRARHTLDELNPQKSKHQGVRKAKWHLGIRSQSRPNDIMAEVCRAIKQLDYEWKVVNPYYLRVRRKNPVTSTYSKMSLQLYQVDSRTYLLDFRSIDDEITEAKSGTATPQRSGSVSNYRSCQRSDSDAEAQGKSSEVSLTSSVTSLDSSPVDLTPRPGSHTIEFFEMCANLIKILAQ
Chain of Caspase-9 (P55211 1-315 limits assumed): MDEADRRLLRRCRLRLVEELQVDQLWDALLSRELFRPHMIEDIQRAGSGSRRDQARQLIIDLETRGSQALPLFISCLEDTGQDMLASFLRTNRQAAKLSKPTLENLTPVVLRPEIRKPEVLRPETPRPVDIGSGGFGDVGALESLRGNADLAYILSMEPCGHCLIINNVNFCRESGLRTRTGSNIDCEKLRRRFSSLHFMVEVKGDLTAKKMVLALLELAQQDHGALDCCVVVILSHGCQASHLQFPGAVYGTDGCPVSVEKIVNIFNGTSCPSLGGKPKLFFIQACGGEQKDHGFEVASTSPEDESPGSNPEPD
Chain of Caspase-9 (P55211 331-416 limits assumed): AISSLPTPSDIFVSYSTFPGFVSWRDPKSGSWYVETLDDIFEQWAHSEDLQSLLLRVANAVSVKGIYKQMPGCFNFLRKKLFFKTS
Chain of Serine/threonine-protein kinase DCLK1 (O15075 whole entry): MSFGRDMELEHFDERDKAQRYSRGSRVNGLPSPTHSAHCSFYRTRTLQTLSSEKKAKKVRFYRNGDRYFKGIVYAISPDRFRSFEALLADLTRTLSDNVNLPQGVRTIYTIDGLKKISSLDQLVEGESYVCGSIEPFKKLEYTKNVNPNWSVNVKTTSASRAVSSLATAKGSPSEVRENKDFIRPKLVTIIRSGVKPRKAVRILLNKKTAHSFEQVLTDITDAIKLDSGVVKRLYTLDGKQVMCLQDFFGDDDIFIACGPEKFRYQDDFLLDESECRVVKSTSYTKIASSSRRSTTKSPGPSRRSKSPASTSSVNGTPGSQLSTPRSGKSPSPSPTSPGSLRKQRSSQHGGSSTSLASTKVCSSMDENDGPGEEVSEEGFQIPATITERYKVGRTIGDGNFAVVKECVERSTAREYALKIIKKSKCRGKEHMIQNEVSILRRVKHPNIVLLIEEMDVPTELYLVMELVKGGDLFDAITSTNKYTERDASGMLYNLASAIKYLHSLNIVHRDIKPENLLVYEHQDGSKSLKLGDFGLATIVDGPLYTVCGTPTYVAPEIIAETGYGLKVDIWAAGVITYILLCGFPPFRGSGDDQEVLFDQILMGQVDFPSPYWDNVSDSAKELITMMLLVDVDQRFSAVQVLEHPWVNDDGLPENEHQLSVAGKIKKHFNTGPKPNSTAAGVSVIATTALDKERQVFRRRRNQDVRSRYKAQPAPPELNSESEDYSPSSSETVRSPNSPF
Chain of Ribosomal protein S6 kinase alpha-3 (P51812 whole entry): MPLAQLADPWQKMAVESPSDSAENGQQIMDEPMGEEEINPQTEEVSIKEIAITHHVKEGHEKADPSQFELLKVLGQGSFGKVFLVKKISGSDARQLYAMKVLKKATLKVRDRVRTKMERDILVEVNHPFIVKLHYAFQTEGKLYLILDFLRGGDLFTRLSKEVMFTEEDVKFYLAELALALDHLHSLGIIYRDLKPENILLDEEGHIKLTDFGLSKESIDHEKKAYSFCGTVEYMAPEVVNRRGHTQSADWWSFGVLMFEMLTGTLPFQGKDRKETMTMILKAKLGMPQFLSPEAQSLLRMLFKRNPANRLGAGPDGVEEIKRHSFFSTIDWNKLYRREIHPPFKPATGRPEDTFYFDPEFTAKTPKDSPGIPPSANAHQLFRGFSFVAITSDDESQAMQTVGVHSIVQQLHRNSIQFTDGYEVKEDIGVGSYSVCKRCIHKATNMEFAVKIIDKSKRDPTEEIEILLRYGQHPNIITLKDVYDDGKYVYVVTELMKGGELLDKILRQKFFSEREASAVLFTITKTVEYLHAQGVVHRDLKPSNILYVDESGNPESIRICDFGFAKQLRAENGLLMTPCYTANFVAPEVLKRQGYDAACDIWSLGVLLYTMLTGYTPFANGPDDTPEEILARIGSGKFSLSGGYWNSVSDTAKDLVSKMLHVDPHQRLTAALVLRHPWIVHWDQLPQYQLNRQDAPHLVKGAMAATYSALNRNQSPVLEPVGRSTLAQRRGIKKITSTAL
Chain of Tyrosine-protein kinase Lyn (P07948 whole entry): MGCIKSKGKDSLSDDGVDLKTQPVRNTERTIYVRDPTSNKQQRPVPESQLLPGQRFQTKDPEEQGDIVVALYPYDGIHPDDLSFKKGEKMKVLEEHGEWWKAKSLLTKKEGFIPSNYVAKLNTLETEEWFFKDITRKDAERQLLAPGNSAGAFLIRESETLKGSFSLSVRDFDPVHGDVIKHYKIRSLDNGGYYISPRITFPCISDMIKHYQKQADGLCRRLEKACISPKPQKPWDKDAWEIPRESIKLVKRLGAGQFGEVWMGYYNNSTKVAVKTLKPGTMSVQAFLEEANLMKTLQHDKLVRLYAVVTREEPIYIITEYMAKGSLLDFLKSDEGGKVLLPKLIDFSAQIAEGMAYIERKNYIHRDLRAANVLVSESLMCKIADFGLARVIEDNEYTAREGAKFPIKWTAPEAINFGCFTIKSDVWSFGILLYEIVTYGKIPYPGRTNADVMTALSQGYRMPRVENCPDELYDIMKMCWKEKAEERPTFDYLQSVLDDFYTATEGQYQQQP
Chain of cAMP-dependent protein kinase catalytic subunit PRKX (P51817 whole entry): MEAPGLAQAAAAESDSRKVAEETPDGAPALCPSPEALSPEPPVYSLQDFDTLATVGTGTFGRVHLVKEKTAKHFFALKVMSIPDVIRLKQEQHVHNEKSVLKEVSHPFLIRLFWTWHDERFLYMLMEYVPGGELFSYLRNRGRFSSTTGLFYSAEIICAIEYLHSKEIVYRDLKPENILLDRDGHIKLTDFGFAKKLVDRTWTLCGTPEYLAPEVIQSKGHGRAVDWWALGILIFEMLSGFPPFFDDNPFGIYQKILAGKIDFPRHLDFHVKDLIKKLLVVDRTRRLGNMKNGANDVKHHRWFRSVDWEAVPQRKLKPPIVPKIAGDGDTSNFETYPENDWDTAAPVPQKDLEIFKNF

Take `COc1ccc(C(C[N+](=O)[O-])c2c(C)[nH]n(-c3ccccc3)c2=O)cc1` (stereo not drawn): on Protein RecA, the EC50 was 3.3 µM (active).
As to `O=C(COC(=O)c1ccc([N+](=O)[O-])s1)Nc1cccc(S(=O)(=O)/N=C2/CCCCCN2)c1`, on Caspase-9, the AC50 was 30.2 µM (active).
Turning to `Oc1c2ccccc2c2c3c(cccc13)N=N2` [SP-600125], the Ki in [1] was 2 µM (active); in [2], 3.16 µM (active); in [3], 398 nM (active); in data set [4] it was 6.31 µM (active); in data set [5] it was 63.1 nM (active); in data set [6], 3.16 µM (active). Besides, the Ki was 79.4 nM (active) in data set [7]; 501 nM (active) in [8]; > 1.58 µM (inactive) in [9]; 50.1 nM (active) in data set [10]; 631 nM (active) in data set [11]; > 6.31 µM (inactive) in data set [12]. The Ki was 1 µM (active) in data set [13]; 15.8 nM (active) in data set [14]; > 2 µM (inactive) in data set [15]; > 10 µM (inactive) in data set [16]; 1 µM (active) in data set [17]; 1.26 µM (active) in [18]. For the same compound, the Ki in [19] is > 1.58 µM (inactive); in [21], > 5.01 µM (inactive); in [22] it was 3.98 µM (active); in data set [23], 398 nM (active); in data set [24], > 1.58 µM (inactive); in data set [25], > 10 µM (inactive). The Ki was 631 nM (active) in data set [26], 794 nM (active) in [28], 398 nM (active) in data set [29] and 1.58 µM (active) in [30]. Further, the half-maximal activity concentration (AC50) entry at Cytochrome P450 2C9 is given as “inconclusive”. Moreover, the IC50 is > 66 µM (inactive) in data set [20] and 30.9 µM (inactive) in data set [27].

For the origin of these results see ChEMBL document CHEMBL1201862, “PubChem BioAssay data set” (2004).
